Test results taken from patent US20130296224A1, “METHOD FOR TREATMENT OF INFLAMMATORY DISEASE AND DISORDER” (HealOr Ltd., priority 2011, published 2013).
The star is where a group is joined. Palmitoyl = CCCCCCCCCCCCCCCC(=O)*; Myristoyl = CCCCCCCCCCCCCC(=O)*

Key:
[1] = system: keratinocytes stimulated by TNFα; experiment: Cytokine secretion in stimulated keratinocytes treated with PKCδ activator (ELISA); assay type: cell-based, BALB/C mice; conditions: medium collected after 48 hr
Description: (§1) PKCδ activators were also shown to have an anti-inflammatory effect on keratinocytes and splenocytes. Keratinocytes were derived from newborn BALB/C mice skin. The cells were incubated for 5 days in 24 wells plate. Cells were then incubated with PBS−/− as control or stimulated by LPS or TNFα. The PKCδ inhibitor DAP-1 (SEQ ID NO: 34) was added. Medium containing secreted cytokines was collected after 48 hr and analyzed using ELISA. FIG. 43 is a tabular summary showing cytokine secretion in splenocytes stimulated with LPS. FIG. 44 is a tabular summary of cytokine secretion in keratinocytes stimulated by TNFα.

[2] = system: splenocytes stimulated with LPS; experiment: Cytokine secretion in splenocytes stimulated with LPS, treated with PKCδ activator; assay type: cell-based
Description: as §1

EAE mice = experiment: Experimental allergic encephalomyelitis (EAE), MOG35-55/CFA immunized mice; assay type: in vivo, C57BL/6J mice; set-up: EAE severity / average group score at the end of the experiment (day 42): dose or concentration left out as unconfirmed; conditions: for EAE score on the initial day (in brackets): scale 0-6; for Number of dead mice during 49 days: n=7 per group; for Score on day 29 / Score on day 37 / Score on day 18: EAE scale 0-6
[3] = system: activated macrophages (MAC-2); experiment: Macrophage activation in skin wound (MAC-2 staining); assay type: in vivo, C57BL/6J mouse; conditions: daily treatment, 5 days; control vs 10 μg p=0.0028
Description: The effect of MPDY-1 on macrophage activation was also shown by MAC-2 staining. MAC-2 is a specific marker for activated macrophages. […] A two-cm longitudinal incision was done as described above. Animals were treated daily with DPBS^−/− (Control) or MPDY-1 in the specified concentrations (n=6). After 5 days immunohistochemical staining was performed utilizing anti-MAC-2 antibodies. Bar […]. (*p(control Vs. MPDY-1 10 μg)=0.0028).

macrophages (Iba-1) = experiment: Macrophage infiltration in skin wound (Iba-1 staining); assay type: in vivo, C57BL/6J mouse; conditions: daily treatment, five days post-wounding
Description: The effect of MPDY-1 on macrophage infiltration was also shown by Iba-1 staining. Iba-1 is a general marker for macrophages. […] As above, a two-cm longitudinal incision was done on the upper back of a C57BL/6J mouse. Following wounding, a sterile pad was sutured to the mouse's skin. Animals were treated daily with MPDY-1 (n=6). Five days post-wounding, when inflammatory phase reaches its peak, the mice were sacrificed, skin tissues were embedded in paraffin and immunohistochemical staining was performed utilizing anti-Iba-1 antibodies.

activated keratinocytes = experiment: Cytokine secretion in LPS, TNFα or IL-17 activated keratinocytes treated with peptide PKCα inhibitors (ELISA); assay type: cell-based, BALB/C mice; conditions: for cytokine secretion from LPS and TNFα activated keratinocytes: FIGS. 19 to 23; for cytokine secretion from IL-17A activated keratinocytes: FIGS. 24 to 27; for cytokine secretion in keratinocytes stimulated by LPS, TNFα, or IL-17: medium collected after 48 hr, ELISA
Description: To determine their effects, keratinocytes were derived from newborn BALB/C mice skin. The cells were incubated for 5 days in 24 wells plate. Cells were then incubated with PBS −/− as control or stimulated by LPS, TNFα, or IL-17. PKCα inhibitors were added as indicated. Medium containing secreted cytokines was collected after 48 hr and analyzed using ELISA. FIG. 50 is a tabular summary of cytokine secretion.

IKK = experiment: TNFα induced IKK activation in keratinocytes (Western blot phospho-IKKa/b Ser176/180); assay type: cell-based, Murine; conditions: 1 hour pretreatment, TNFα 35 ng/ml 15 minutes
Description: Murine primary keratinocytes were grown for 4 days to full confluence in Low Ca^+2 MEM. Cells were pretreated with designated concentration of MPDY-1 as described in the figure for 1 hour, prior to TNFα induction. Following MPDY-1 pretreatment, cells were incubated with TNFα 35 ng/ml for 15 minutes. Reaction was stopped by adding ice-cold dPBS−/− and keratinocytes were homogenized in RIPA buffer. Samples were subjected to SDS PAGE Western Blot analysis, utilizing phospho-IKKa/b (Ser176/180 antibody).

[4] = system: histamine induced pruritus; experiment: Histamine prick test model of pruritus; assay type: in vivo, healthy volunteers; conditions: topical application on forearm, photographs at 0, 10, 20, 30 minutes
Description: Forearms of individual subjects were injected with histamine solution and placebo. The formulation of Example 4 was topically applied with MPDY-1 at various concentrations and pruritus was assessed over a time course as shown in FIGS. 39-42.
This test was performed by placing a drop of a solution containing a possible allergen on the skin, and a series of scratches or needle pricks allow the solution to enter the skin. The extract enters into the outer layer of the skin (epidermis) using a fine needle (such as a. 26G disposable needle). This testing is not painful, and generally there is no bleeding involved since the needle only scratches the surface of the skin. If the skin develops a red, raised itchy area (called a wheal), it is as a result of allergic reaction to that allergen. This is called a positive reaction. A drop of extract is introduced through a fine needle (such as a No. 26 disposable needle). The test causes no discomfort and minimal trauma so that controls and negative test show only the site of the prick; if anything.
26G needles were utilized to introduce histamine stock (Histatrol Positive Control Histamine, 1 mg/ml, code #HIST14999V, Trupharm). The test was conducted on healthy volunteers in a double-blind, randomized test. The formulations were applied on the forearms. […]

[5] = 0.1 mg/kg i.p. three times a week
[6] = 1 mg/kg i.p. three times a week

Substance: H-His-Phe-Glu-Asp-Trp-Ile-Asp-His-Phe-Glu-Asp-Trp-Ile-Asp-OH (H-HFEDWIDHFEDWID-OH) [DAP-1]
- inflammatory cytokine secretion in keratinocytes [1]: significantly decease inflammatory cytokine secretion
- inflammatory cytokine secretion in splenocytes [2]: significantly decease inflammatory cytokine secretion

Substance: Myristoyl-Thru-Arg-Lys-Arg-Gln-Arg-Ala-Met-Arg-Arg-Arg-Val-His-Gln-Ile-Asn-Gly-OH (Myristoyl-TRKRQRAMRRRVHQING-OH; SMILES CCCCCCCCCCCCCC(=O)N[C@H](C(=O)N[C@@H](CCCNC(=N)N)C(=O)N[C@@H](CCCCN)C(=O)N[C@@H](CCCNC(=N)N)C(=O)N[C@@H](CCC(N)=O)C(=O)N[C@@H](CCCNC(=N)N)C(=O)N[C@@H](C)C(=O)N[C@@H](CCSC)C(=O)N[C@@H](CCCNC(=N)N)C(=O)N[C@@H](CCCNC(=N)N)C(=O)N[C@@H](CCCNC(=N)N)C(=O)N[C@H](C(=O)N[C@@H](Cc1c[nH]cn1)C(=O)N[C@@H](CCC(N)=O)C(=O)N[C@H](C(=O)N[C@@H](CC(N)=O)C(=O)NCC(=O)O)[C@@H](C)CC)C(C)C)[C@@H](C)O) [MPE-1]
- EAE severity (EAE mice): reduced EAE severity
- The initial day (first illness signs) (EAE mice; [5]): 11 days
- EAE score on the initial day (in brackets) (EAE mice; [5]): 0.429
- The initial day (first illness signs) (EAE mice; [6]): 10 days
- Number of dead mice during 49 days (EAE mice; 1 mg/kg i.p.): 4
- EAE score on the initial day (in brackets) (EAE mice; 1 mg/kg i.p.): 0.429
- average group score at the end of the experiment (day 42) (EAE mice; control group 2.86): 2.00

Substance: Myristoyl-Phe-Ala-Arg-Lys-Gly-Ala-Leu-Arg-Gln-OH (Myristoyl-FARKGALRQ-OH; SMILES CCCCCCCCCCCCCC(=O)N[C@@H](Cc1ccccc1)C(=O)N[C@@H](C)C(=O)N[C@@H](CCCNC(=N)N)C(=O)N[C@@H](CCCCN)C(=O)NCC(=O)N[C@@H](C)C(=O)N[C@@H](CC(C)C)C(=O)N[C@@H](CCCNC(=N)N)C(=O)N[C@@H](CCC(N)=O)C(=O)O) [MPDY-1]
- activation of macrophages (MAC-2 positive cells per field) [3]: significantly inhibited
- macrophage infiltration (Iba-1 positive cells per field) (macrophages (Iba-1)): dose dependent effect
- cytokine secretion from LPS and TNFα activated keratinocytes (activated keratinocytes): decrease cytokine secretion
- cytokine secretion from IL-17A activated keratinocytes (activated keratinocytes): decrease cytokine secretion
- cytokine secretion in keratinocytes stimulated by LPS, TNFα, or IL-17 (activated keratinocytes): effective in decreasing cytokine secretion
- TNFα induced IKK activation in keratinocytes (IKK): significantly reduced
- concentration exhibiting the strongest inhibition of IKK activation (lowest tested) (IKK): 0.1 mg/mL
- redness, inflammation and pruritus compared with control over the time course [4]: significantly attenuated redness, inflammation and pruritus
- EAE severity (EAE mice): reduced EAE severity
- EAE score / clinical symptoms compared to the control group (EAE mice; 0.1 mg/kg): lower score during most of the experiment days
- The initial day (first illness signs) (EAE mice; [5]): 13 days
- EAE score on the initial day (in brackets) (EAE mice; [5]): 1.000
- Score on day 29 (EAE mice; 0.1 mg/kg i.p.): 2.000
- Score on day 37 (EAE mice; 0.1 mg/kg i.p.): 1.500
- The initial day (first illness signs) (EAE mice; [6]): 11 days
- Number of dead mice during 49 days (EAE mice; 1 mg/kg i.p.): 2
- EAE score on the initial day (in brackets) (EAE mice; 1 mg/kg i.p.): 0.214

Substance: CRAMP: comparison treatment in the EAE study (0.2 and 2 mg/kg); not further described (ISRLAGLLRKGGEKIGEKLKKIGQKIKNFFQKLVPQPE; Cathelin-related antimicrobial peptide; UniProt P51437 135-172, looked up) [reference compound]
- The initial day (first illness signs) (EAE mice; 0.2 mg/kg i.p. three times a week): 10 days
- Score on day 18 (EAE mice; 0.2 mg/kg i.p.): 3.214
- Score on day 29 (EAE mice; 0.2 mg/kg i.p.): 2.000
- Score on day 37 (EAE mice; 0.2 mg/kg i.p.): 2.571
- Number of dead mice during 49 days (EAE mice; 0.2 mg/kg i.p.): 2
- EAE score on the initial day (in brackets) (EAE mice; 0.2 mg/kg i.p.): 0.571
- The initial day (first illness signs) (EAE mice; 2 mg/kg i.p. three times a week): 11 days
- Score on day 18 (EAE mice; 2 mg/kg i.p.): 2.643
- Score on day 29 (EAE mice; 2 mg/kg i.p.): 2.643
- Score on day 37 (EAE mice; 2 mg/kg i.p.): 2.143
- Number of dead mice during 49 days (EAE mice; 2 mg/kg i.p.): 2
- EAE score on the initial day (in brackets) (EAE mice; 2 mg/kg i.p.): 0.143

Substance: Palmitoyl-Phe-Ala-Arg-Lys-Gly-Ala-Leu-Arg-Gln-OH-acetate salt (Palmitoyl-FARKGALRQ-OH; also: acetate salt) [PPDY-1]
- cytokine secretion in keratinocytes stimulated by LPS, TNFα, or IL-17 (activated keratinocytes): effective in decreasing cytokine secretion

Substance: H-Phe-Ala-Arg-Lys-Gly-Ala-Leu-Arg-Gln-OH (H-FARKGALRQ-OH) [AWOT-1]
- cytokine secretion in keratinocytes stimulated by LPS, TNFα, or IL-17 (activated keratinocytes): effective in decreasing cytokine secretion

Substance: Myristoyl-Phe-Ala-Arg-Lys-Gly-Ala-Leu-OH (Myristoyl-FARKGAL-OH; SMILES CCCCCCCCCCCCCC(=O)N[C@@H](Cc1ccccc1)C(=O)N[C@@H](C)C(=O)N[C@@H](CCCNC(=N)N)C(=O)N[C@@H](CCCCN)C(=O)NCC(=O)N[C@@H](C)C(=O)N[C@@H](CC(C)C)C(=O)O) [MPDY-1 sh]
- cytokine secretion from LPS and TNFα activated keratinocytes (activated keratinocytes): decrease cytokine secretion
- cytokine secretion from IL-17A activated keratinocytes (activated keratinocytes): decrease cytokine secretion

Substance: H-Thr-Leu-Asn-Pro-Gln-Trp-Glu-Ser-OH (H-TLNPQWES-OH) [AIP-1]
- cytokine secretion in keratinocytes stimulated by LPS, TNFα, or IL-17 (activated keratinocytes): effective in decreasing cytokine secretion

Substance: H-Phe-Ala-Arg-Lys-Gly-Ala-Leu-Arg-Gln-OH-acetate salt (H-FARKGALRQ-OH; also: acetate salt) [PDY-1]
- cytokine secretion from LPS and TNFα activated keratinocytes (activated keratinocytes): decrease cytokine secretion
- cytokine secretion from IL-17A activated keratinocytes (activated keratinocytes): decrease cytokine secretion

Substance: Myristoyl-Phe-Ala-Arg-Lys-Gly-Ala-Leu-OH-trifluoracetate salt (Myristoyl-FARKGAL-OH; also: trifluoracetate salt) [AIP-2]
- cytokine secretion in keratinocytes stimulated by LPS, TNFα, or IL-17 (activated keratinocytes): effective in decreasing cytokine secretion
